Drawing on patent publication US9796680B2, “Glucocerebrosidase modulators and uses thereof” (Alectos Therapeutics Inc., priority 2013, dated 2017), this text covers IC50 and Ki for 28 molecules.

The assay has as its target GCase enzyme (Cerezyme, recombinant human GCase) (Homo sapiens, UniProt P04062, R534H).

By IC50 is commonly meant the midpoint of a concentration-inhibition curve. For orientation: Ki means the equilibrium dissociation constant of an inhibitor or competing ligand from its target.

Chain of GCase enzyme (Cerezyme, recombinant human GCase) (P04062 40-536 R534H limits assumed): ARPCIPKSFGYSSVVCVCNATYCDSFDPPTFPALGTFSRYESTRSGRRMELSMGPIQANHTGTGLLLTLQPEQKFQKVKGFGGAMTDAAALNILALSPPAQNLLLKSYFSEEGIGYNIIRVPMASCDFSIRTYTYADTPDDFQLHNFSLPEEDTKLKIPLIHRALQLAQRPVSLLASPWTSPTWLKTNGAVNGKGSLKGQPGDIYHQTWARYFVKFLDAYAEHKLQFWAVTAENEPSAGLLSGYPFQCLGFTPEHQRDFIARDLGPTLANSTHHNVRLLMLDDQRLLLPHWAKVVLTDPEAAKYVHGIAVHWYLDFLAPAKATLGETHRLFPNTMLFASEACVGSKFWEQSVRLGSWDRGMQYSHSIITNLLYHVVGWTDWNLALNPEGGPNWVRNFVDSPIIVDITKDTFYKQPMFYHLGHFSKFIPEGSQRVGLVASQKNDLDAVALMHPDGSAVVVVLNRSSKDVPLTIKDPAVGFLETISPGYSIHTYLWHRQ
Protocol: Assay for Determination of Ki Values for Inhibition of GCase Activity
Various concentrations of test compounds were prepared in DMSO and then diluted into buffer consisting of 50 mM sodium phosphate 0.25% w/v sodium taurodexoycholate, pH 7.0. […] The reaction solution consisted of 25 μL of 6 mM 4-methylumbelliferone-β-D glucopyranoside in 10% DMSO in the same buffer, 12.5 μL of enzyme and 12.5 μL of various concentrations of test compound diluted in buffer. […] The reaction was initiated by addition of enzyme and allowed to proceed for 20 min at 37° C. to assess GCase activity. […] IC50 values were determined by fitting the data to a log [inhibitor concentration] versus response curve using GraphPad Prism.

Regarding `O[C@H]1[C@H](O)CNC2(CC2)[C@@H]1CF` [Example 3, (6R,7R,8S)-8-(fluoromethyl)-4-azaspiro[2.5]octane-6,7-diol], the 50% inhibitory concentration (IC50) was 6.2 nM and the inhibition constant Ki turned out to be 2.1 nM. On to `O[C@H]1[C@H](O)CNC2(CC2)[C@@H]1CCF` [Example 14, (6R,7R,8S)-8-(2-fluoroethyl)-4-azaspiro[2.5]octane-6,7-diol], for which the IC50 was found to be 27 nM. In the case of `O[C@H]1[C@H](O)CNC2(CC2)[C@@H]1CCl` [Example 5, (6R,7R,8S)-8-(chloromethyl)-4-azaspiro[2.5]octane-6,7-diol], the IC50 was found to be 7.4 nM. Take `O=C(NC1CC1)[C@@H]1[C@@H](O)[C@H](O)CNC12CC2` [Example 11, (6R,7R,8S)-N-cyclopropyl-6,7-dihydroxy-4-azaspiro[2.5]octane-8-carboxamide]: the IC50 was 462 nM. As for `O[C@H]1[C@H](O)CNC2(CC2)[C@@H]1C#CCCF` [Example 27, (6R,7R,8S)-8-(4-fluorobut-1-yn-1-yl)-4-azaspiro[2.5]octane-6,7-diol], the 50% inhibitory concentration (IC50) came to 2.5 nM.

Consider `OCC#C[C@@H]1[C@@H](O)[C@H](O)CNC12CC2` [Example 24, (6R,7R,8S)-8-(3-hydroxyprop-1-yn-1-yl)-4-azaspiro[2.5]octane-6,7-diol], for which the 50% inhibitory concentration (IC50) came out at 17 nM. The same measure, in the same setting: next, `CCC#C[C@@H]1[C@@H](O)[C@H](O)CNC12CC2` [Example 22, (6R,7R,8S)-8-(but-1-yn-1-yl)-4-azaspiro[2.5]octane-6,7-diol]: 2.4 nM. Take `O[C@H]1[C@H](O)CNC2(CC2)[C@@H]1C#CC(F)F` [Example 26, (6R,7R,8S)-8-(3,3-difluoroprop-1-yn-1-yl)-4-azaspiro[2.5]octane-6,7-diol]: the IC50 came out at 22 nM and the inhibition constant (Ki) amounted to 17 nM. On to `O[C@H]1[C@H](O)CNC2(CC2)[C@@H]1C#CCC(F)F` [Example 28, (6R,7R,8S)-8-(4,4-difluorobut-1-yn-1-yl)-4-azaspiro[2.5]octane-6,7-diol], for which the concentration for half-maximal inhibition (IC50) is 11 nM. Consider `O=C(O)[C@@H]1[C@@H](O)[C@H](O)CNC12CC2` [Example 9, (6R,7R,8S)-6,7-dihydroxy-4-azaspiro[2.5]octane-8-carboxylic acid], for which the 50% inhibitory concentration (IC50) came out at 507 nM. Still for that read-out and setting: under `CC1(C)NC[C@@H](O)[C@H](O)[C@H]1CO` [(3R,4R,5R)-5-(hydroxymethyl)-6,6-dimethylpiperidine-3,4-diol, reference compound] stands 3440 nM; under `CC[C@@H]1[C@@H](O)[C@H](O)CNC12CC2` [Example 12, (6R,7R,8S)-8-ethyl-4-azaspiro[2.5]octane-6,7-diol], 6.3 nM; under `COC[C@@H]1[C@@H](O)[C@H](O)CNC12CC2` [Example 6, (6R,7R,8R)-8-(methoxymethyl)-4-azaspiro[2.5]octane-6,7-diol], 7.5 nM.

`CCCC#C[C@@H]1[C@@H](O)[C@H](O)CNC12CC2` [Example 23, (6R,7R,8S)-8-(pent-1-yn-1-yl)-4-azaspiro[2.5]octane-6,7-diol]: the IC50 came to 6.7 nM. The same measure, in the same setting: under `CNC(=O)[C@@H]1[C@@H](O)[C@H](O)CNC12CC2` [Example 10, (6R,7R,8S)-6,7-dihydroxy-N-methyl-4-azaspiro[2.5]octane-8-carboxamide] stands 264 nM; under `CO[C@@H]1[C@@H](O)[C@H](O)CNC12CC2` [Example 7, (6R,7S,8S)-8-methoxy-4-azaspiro[2.5]octane-6,7-diol], 32 nM. In the case of `O[C@H]1[C@H](O)CNC2(CC2)[C@@H]1/C=C/F` [Example 18, (6R,7R,8S)-8-((E)-2-fluorovinyl)-4-azaspiro[2.5]octane-6,7-diol], the concentration for half-maximal inhibition (IC50) was 20 nM. Still for that read-out and setting: under `O[C@H]1[C@H](O)CNC2(CC2)[C@@H]1C=C(F)F` [Example 19, (6R,7R,8S)-8-(2,2-difluorovinyl)-4-azaspiro[2.5]octane-6,7-diol] stands 75 nM; under `N#C[C@@H]1[C@@H](O)[C@H](O)CNC12CC2` [Example 8, (6R,7R,8R)-6,7-dihydroxy-4-azaspiro[2.5]octane-8-carbonitrile], 75 nM. Consider `C=C[C@@H]1[C@@H](O)[C@H](O)CNC12CC2` [Example 16, (6R,7R,8S)-8-vinyl-4-azaspiro[2.5]octane-6,7-diol], for which the IC50 was determined as 6.8 nM and the inhibition constant Ki amounted to 7.6 nM. For the molecule `OC[C@@H]1[C@@H](O)[C@H](O)CNC12CC2` [Example 2, (6R,7R,8R)-8-(hydroxymethyl)-4-azaspiro[2.5]octane-6,7-diol], the IC50 is 13 nM and the Ki was 7 nM. The like results for `C[C@@H]1[C@@H](O)[C@H](O)CNC12CC2` [Example 1, (6R,7R,8S)-8-methyl-4-azaspiro[2.5]octane-6,7-diol] were, in that order, 3.7 nM and 2.6 nM.

Turning to `C#C[C@@H]1[C@@H](O)[C@H](O)CNC12CC2` [Example 20, (6R,7R,8S)-8-ethynyl-4-azaspiro[2.5]octane-6,7-diol], the IC50 is 13 nM and the Ki was found to be 7.9 nM. For `CCC[C@@H]1[C@@H](O)[C@H](O)CNC12CC2` [Example 13, (6R,7R,8S)-8-propyl-4-azaspiro[2.5]octane-6,7-diol], the IC50 amounted to 15 nM. For the molecule `CC#C[C@@H]1[C@@H](O)[C@H](O)CNC12CC2` [Example 21, (6R,7R,8S)-8-(prop-1-yn-1-yl)-4-azaspiro[2.5]octane-6,7-diol], the IC50 was 9.7 nM and the Ki is 6.7 nM. `O[C@H]1[C@H](O)CNC2(CC2)[C@@H]1C#CCF` [Example 25, (6R,7R,8S)-8-(3-fluoroprop-1-yn-1-yl)-4-azaspiro[2.5]octane-6,7-diol]: the IC50 was found to be 16 nM and the inhibitory constant (Ki) was 15 nM. For `O[C@H]1[C@H](O)CNC2(CC2)[C@@H]1C(F)F` [Example 4, (6R,7R,8S)-8-(difluoromethyl)-4-azaspiro[2.5]octane-6,7-diol], the IC50 amounted to 6.5 nM and the inhibitory constant (Ki) was 8 nM.

Regarding `O[C@H]1[C@H](O)CNC2(CC2)[C@@H]1/C=C\F` [Example 17, (6R,7R,8S)-8-((Z)-2-fluorovinyl)-4-azaspiro[2.5]octane-6,7-diol], the IC50 is 36 nM.
